Measurements from patent US7314644B2, “Extraction and purification method of active constituents from stem of Lonicera japonica thunb., its usage for anti-inflammatory and analgesic drug” (SK Chemicals Co., Ltd., priority 2002, dated 2008).

How the values were obtained:
Format in all cases: in vivo
[1] = tested on: ICR mice; experiment: Croton oil induced ear edema test
[2] = tested on: ICR mice; experiment: Arachidonic acid induced ear edema test
[3] = tested on: ICR mice; experiment: Acetic acid induced writhing test
[4] = tested on: SD rats; experiment: Toxicity test (lethal dose, symptoms, weight, autopsy)
Description: The active constituents of honeysuckle stem and sweroside, in the amount of 1.0 g/kg, 1.5 g/kg and 2.0 g/kg, were administered through the tail veins of SD rats (body weight: 120 to 170 g, 5 male and female rats for each administration dose, SLC, Japan), respectively, which had been fasted for 4 hours. […] An autopsy was conducted to identify presence of any abnormalities of organs.
The lethal dose of the active constituents of honeysuckle stem and sweroside was both over 5.0 g/kg for oral administration (no dead rats observed), and over 2.0 g/kg for intravenous injection (no dead rats observed).

`C=C[C@H]1[C@H](O[C@@H]2O[C@H](CO)[C@@H](O)[C@H](O)[C@H]2O)OC=C2C(=O)OCC[C@H]21` [Sweroside, sweroside] was tested, and the “Rate of Inhibition (%)” value ([1]; Table 8, tail vein, 0.1 mg/kg) was 49.8%, the “Rate of Inhibition (%)” value ([1]; Table 8, tail vein, 1 mg/kg) was 56.2% and the “Rate of Inhibition (%)” value ([1]; Table 8, tail vein, 10 mg/kg) was 65.7%. For the same compound, the “Rate of Inhibition (%)” value ([1]; Table 9, oral administration, 1 mg/kg) was 31.9%, the “Rate of Inhibition (%)” value ([1]; Table 9, oral administration, 10 mg/kg) was 43.1% and the “Rate of Inhibition (%)” value ([1]; Table 9, oral administration, 100 mg/kg) was 57.8%. For the same compound, the “Rate of Inhibition (%)” value ([2]; Table 10, tail vein, 0.1 mg/kg) was 48.3%, the “Rate of Inhibition (%)” value ([2]; Table 10, tail vein, 1 mg/kg) was 55.1% and the “Rate of Inhibition (%)” value ([2]; Table 10, tail vein, 10 mg/kg) was 69.1%. For the same compound, the “Rate of Inhibition (%)” value ([2]; Table 11, oral administration, 1 mg/kg) was 29.0%, the “Rate of Inhibition (%)” value ([2]; Table 11, oral administration, 10 mg/kg) was 34.7% and the “Rate of Inhibition (%)” value ([2]; Table 11, oral administration, 100 mg/kg) was 45.7%. The “Rate of Inhibition (%)” value ([3]; Table 12, tail vein, 0.1 mg/kg) was 74.6%, the “Rate of Inhibition (%)” value ([3]; Table 12, tail vein, 1 mg/kg) was 86.4% and the “Rate of Inhibition (%)” value ([3]; Table 12, tail vein, 10 mg/kg) was 89.7%. The “Rate of Inhibition (%)” value ([3]; Table 13, oral administration, 1 mg/kg) was 65.9%, the “Rate of Inhibition (%)” value ([3]; Table 13, oral administration, 10 mg/kg) was 79.1% and the “Rate of Inhibition (%)” value ([3]; Table 13, oral administration, 100 mg/kg) was 87.9%. For the same compound, the general symptoms ([4]; 2.0 g/kg intravenously injected, restored soon) was “increased respiration counts and decreased activity for about 10 minutes”, the autopsy result ([4]; as is the case with the control groups) was “no abnormalities” and the weight change ([4]; observed for 2 weeks after administration) was “no change in weight”.
